According to patent US20240181014A1 (priority 2021, published 2024):
Read-outs that look alike come from different tables or passages of the source.

What was measured:
[1] = compounded ALA (injection, suppository, topical, troche; intravenous); cited from earlier work
[2] = test system: post-COVID-19 syndrome patients; format: in vivo, human

Structure (SMILES)	safety concerns in available clinical reports [1]	blood oxygenation value pO2 at end of treatment ([2]; Example 4, patient) [mmHg]	status at control visit ([2]; Example 4, patient)	external oxygen supply ([2]; Example 4, patient, needed intermitted oxygenation before)	blood oxygenation value pO2 at room air ([2]; Example 4, patient, pO2 92 mmHg before) [mmHg]	breathing at end of treatment ([2]; Example 4, patient, severe difficulties to breath before)	breathing at end of treatment ([2]; Example 5, patient)	status at control visit ([2]; Example 5, patient)	blood oxygenation value pO2 at room air at end of treatment ([2]; Example 5, patient, pO2 93 mmHg before) [mmHg]	ability to work at end of treatment ([2]; Example 5, patient, unable to work due to extreme fatigue and cough before)
O=C(O)CCCC[C@@H]1CCSS1 [ALA, (R)-5-(1,2-Dithiolan-3-yl)pentanoic acid]	no serious safety concerns	–	–	–	–	–	–	–	–	–
CC[C@H](C)[C@H](NC(=O)[C@H](CO)NC(=O)[C@H](CC(N)=O)NC(=O)[C@H](CC(C)C)NC(=O)[C@H](Cc1ccc(O)cc1)NC(=O)[C@H](CCCCN)NC(=O)[C@H](CCCCN)NC(=O)[C@@H](NC(=O)[C@H](C)NC(=O)[C@H](CCSC)NC(=O)[C@H](CCC(N)=O)NC(=O)[C@H](CCCCN)NC(=O)[C@H](CCCNC(=N)N)NC(=O)[C@H](CC(C)C)NC(=O)[C@H](CCCNC(=N)N)NC(=O)[C@@H](NC(=O)[C@H](Cc1ccc(O)cc1)NC(=O)[C@H](CC(N)=O)NC(=O)[C@H](CC(=O)O)NC(=O)[C@@H](NC(=O)[C@H](Cc1ccccc1)NC(=O)[C@@H](NC(=O)[C@H](C)NC(=O)[C@H](CC(=O)O)NC(=O)[C@H](CO)NC(=O)[C@@H](N)Cc1c[nH]cn1)C(C)C)[C@@H](C)O)[C@@H](C)O)C(C)C)C(=O)N[C@@H](CC(C)C)C(=O)N[C@@H](CC(N)=O)C(N)=O [Aviptadil]	–	97	considered healthy	off external oxygen supply	96	breathed normally	breathed normally	considered healthy without any further post-COVID symptoms	98	returned to their professional work
